The values below come from article PMC7011920, “Synthesis and biological evaluation of stilbene derivatives coupled to NO donors as potential antidiabetic agents” (Journal of Enzyme Inhibition and Medicinal Chemistry, 2018).

In one series the target is T1, α-Glucosidase (Saccharomyces cerevisiae, UniProt P53341).
T1 construct: purchased Sigma Aldrich G0660-750UN
Put plainly: biochemical. As to conditions: read-out: IC50 value, α-Glucosidase inhibitory activity. The method, then: α-Glucosidases, enzymes anchored in the brush border of the small intestine, are responsible for catalysing the hydrolysis of carbohydrates.
α-Glucosidase (G0660-750UN, Sigma Aldrich, St. Louis, MO) and 4-nitrophenyl α-D-glucopyranoside (PNPG, Macklin) were dissolved in phosphate buffer (pH 6.8, 100 mM), and the test compounds were dissolved in DMSO solution. The experiment was divided into blank group, control group, sample blank group and sample group. The reagents were loaded in 96-well plates at the dose of the table (Table 3). The solution was bathed in 37 °C water for 10 min, after the end, enzyme solution was added. After reaction at 37 °C for 20 min, 70 µL Na2CO3 solution ([…]) was added to stop the reaction. All experiments were run in triplicate. […] Since PNPG can produce glucose and p-nitrophenol (PNP) under the action of α-glucosidase, PNP has the greatest absorption at 405 nm. The absorbance was determined by the microplate reader, and the inhibition rate of α-glucosidase and the IC50 value of each sample were calculated according to the formula. Inhibition rate %={[(AC−AB)−(AS−ASB)]/(AC−AB)}×100% where AC is the absorbance of control group; AB is the absorbance of blank group; AS is the absorbance of sample group; ASB is the absorbance of sample blank group.

In another series the target is T2, aldose reductase (ALR2) (Mus musculus, UniProt P45376).
T2 construct: After homogenisation and centrifugation, the crude ALR2 from mice was obtained; from tissue
Nature of the series: In vitro ALR2 inhibitory activity (crude enzyme, NADPH decrease at 340 nm). The format is biochemical, mice. As to conditions: read-out: IC50 value, ALR2 inhibitory activity. The method, then:
The enzyme aldose reductase (ALR2) is a member of the aldo–keto reductase superfamily. The development and progression of chronic diabetic complications are confirmed to be quite related to the activation and/or over expression of ALR2[25]. Therefore, ALR2 inhibitors may play a critical role in preventing or treating these complications.
After homogenisation and centrifugation, the crude ALR2 from mice was obtained. The inhibitory activity of the compounds on ALR2 was carried out using crude enzyme and different concentrations of the compounds (1–1000 µg/ml) in 200 mM PBS (pH 6.2) containing 0.10 mM NADPH. The reaction was initiated by addition of glyceraldehyde and the decrease in the optical density of NADPH at 340 nm was recorded for 3 min. All experiments were run in triplicate. IC50 of the compounds was calculated. The flavonoid quercetin was used as a reference in the ALR2 assay.

Series [1] in a line: Oral toxicity to mice (Lorke's method). As to conditions: both sexes, mouse, in vivo, Kunming mice, 14 days observation. On the procedure:
With reference to Lorke’s method, Kunming mice were used as targets to estimate oral toxicity of each compound to mice. We select compounds 3c, 3e, and 7c at concentrations of 10, 100, and 1000 mg/kg to test their oral toxicity in the first phase, and 1600, 2900, and 5000 mg/kg at the second phase. […] No death and no appetite-suppressant effect were detected in the tested mice in 14 days. […].
Experiments were performed on Kunming mice (male and female half, body weight range, 25–30 g). Mice were housed in a climate and light controlled room with a 12 h light/dark cycle. Twelve hours before experiments, food was withheld, but animals had free access to drinking water. The compounds were suspended in vehicle (Tween-80, 0.2% in saline). The concentrations were adjusted to orally administrate 0.2 ml/10 g of bw (body weight). Mice were treated in two phases. In the first, intragastric doses of 10, 100 and 1000 mg/kg of bw of compounds were administered. On the second, the doses were adjusted to 1600, 2900 and 5000 mg/kg of bw of compounds. In both phases, mice were observed daily in a period of 14 days for mortality, toxic effects and/or changes in behavioural pattern. At the end of the experiments, the mice were sacrificed in a CO2 chamber.

The test system of series [2] is AGEs (advanced glycation end products) formation. Nature of the series: In vitro inhibitory activity of AGEs formation (bovine serum albumin/glucose, fluorescence). On the procedure:
Advanced glycation end products are a group of complex and heterogeneous compounds, which are implicated in a number of biochemical abnormalities associated with diabetes[21]^,[22]. Therefore, the discovery of AGEs inhibitors would be beneficial to the prevention and treatment of diabetic or other pathogenic complications.
To prepare the AGE reaction solution, 10 mg/ml of bovine serum albumin in 50 mM PBS (pH 7.4) was added to 0.2 M glucose, and 0.02% sodium azide was added to prevent bacterial growth. The reaction mixture (3 ml) was then mixed with various concentrations (0.5–1000 µg/ml) of the target compounds (1 ml) dissolved in DMSO. After incubating at 37 °C for 14 d, the fluorescence intensity of AGE was determined by a fluorospectrophotometer (PE, Cincinnati, OH) with excitation and emission wavelengths at 350 nm and 420 nm[30], respectively. All experiments were run in triplicate. Aminoguanidine hydrochloride was used as a reference compound. The inhibition rate of AGEs formation and the IC50 value of each sample were calculated according to the formula. Inhibition rate %={[(AC−AB)−(AS−ASB)]/(AC−AB)}×100% where AC is the absorbance of control group (1.0 ml glucose +1.0 ml bovine serum albumin +1.0 ml sodium azide +1.0 ml DMSO); AB is the absorbance of blank group (1.0 ml PBS +1.0 ml bovine serum albumin +1.0 ml sodium azide +1.0 ml DMSO); AS is the absorbance of sample group (1.0 ml glucose +1.0 ml bovine serum albumin +1.0 ml sodium azide +1.0 ml target compound solution or aminoguanidine hydrochloride solution); ASB is the absorbance of sample blank group (1.0 ml PBS +1.0 ml bovine serum albumin +1.0 ml sodium azide +1.0 ml target compound solution or aminoguanidine hydrochloride solution).

Where only a bound is given, the exact number is not on record here.

T1 sequence (P53341 whole entry): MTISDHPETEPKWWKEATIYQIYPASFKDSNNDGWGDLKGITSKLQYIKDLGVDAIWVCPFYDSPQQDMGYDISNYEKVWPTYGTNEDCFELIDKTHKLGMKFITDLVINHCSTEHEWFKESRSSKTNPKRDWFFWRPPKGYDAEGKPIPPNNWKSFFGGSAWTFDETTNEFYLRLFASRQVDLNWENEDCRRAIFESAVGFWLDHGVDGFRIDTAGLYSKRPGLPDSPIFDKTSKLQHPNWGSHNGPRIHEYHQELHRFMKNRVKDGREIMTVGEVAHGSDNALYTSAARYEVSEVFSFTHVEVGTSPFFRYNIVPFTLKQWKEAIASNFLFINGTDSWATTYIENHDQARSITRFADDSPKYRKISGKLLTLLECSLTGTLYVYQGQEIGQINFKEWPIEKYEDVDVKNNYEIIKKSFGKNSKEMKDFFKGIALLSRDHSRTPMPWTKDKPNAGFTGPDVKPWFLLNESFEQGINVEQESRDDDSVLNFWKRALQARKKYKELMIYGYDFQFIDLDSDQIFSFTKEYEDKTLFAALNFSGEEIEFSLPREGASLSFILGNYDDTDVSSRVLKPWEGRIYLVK

What is called IC50 is the concentration needed to halve the response being measured. A word on the LD50: it is the dose expected to kill half of the subjects tested. Read a high LD50 as a less toxic substance. In the case of `COc1cc(/C=C/c2ccc(OCCCCCCO[N+](=O)[O-])cc2)cc(OC)c1` [3c], the IC50 came out at 83.1 ± 16.2 µM at α-Glucosidase; 299 ± 22.6 µM on aldose reductase (ALR2); 1.49 ± 0.2 µM in series [2] (50% inhibition of fluorescence intensity of AGE relative to 0.1% DMSO, mean ± SD (n = 3)). The molecule also came in with an LD50 at 14 days in series [1] above 5000 mg/kg. Further, the “AGEs formation inhibitory activity compared with positive reference AG” value in series [2] (ratio to AG) was “over 100 folds”.
